From patent US20240285670A1, “THERAPEUTIC TREATMENT OF TUMORS BY BLOCKING THE HEME SYNTHESIS-EXPORT AXIS” (Università degli Studi di Torino, priority 2021, published 2024)

Key:
[1] = system: SH-SY5Y cells; assay: Activity of mitochondrial ETC complexes I-IV in SHSY-5Y cells; type: cell-based, human; conditions: FLVCR1a-silenced vs scramble shRNA SH-SY5Y cells
Text: Results were expressed as nmol NAD*/min/mg mitochondrial protein for complex I, nmol reduced cytochrome c/min/mg mitochondrial protein for complexes II-III, nmol oxidized cytochrome c/min/mg mitochondrial protein for complex IV. Data represent mean±SEM, n=3. For statistical analyses, an unpaired Student's t-test was used; *=p<0.05, **=p<0.01, *=p<0.001. […] Results are expressed as nmol/mg mitochondrial proteins. Data represent mean±SEM, n=3. For statistical analyses, an unpaired Student's t-test was used; *=p<0.05. […] Results are expressed as pmol CO2/h/mg protein. Data represent mean±SEM, n=3. For statistical analyses, an unpaired Student's t-test was used; **=p<0.01. […] Results were expressed as nmol NAD*/min/mg mitochondrial protein for complex I, nmol reduced cytochrome c/min/mg mitochondrial protein for complexes II-III, nmol oxidized cytochrome c/min/mg mitochondrial protein for complex IV. […] Results are expressed as nmol/mg mitochondrial proteins. […] Results are expressed as pmol CO2/h/mg protein. […] (H) TCA cycle enzymes activities are reported in boxes and expressed as mU/mg mitochondrial proteins. […] Results were expressed as nmol NAD^+/min/mg mitochondrial protein for complex I, nmol reduced cytochrome c/min/mg mitochondrial protein for complexes II-III, nmol oxidized cytochrome c/min/mg mitochondrial protein for complex IV. […] Results are expressed as nmol/mg mitochondrial proteins. […]

[2] = system: SKCO1 cells; assay: SKCO1 xenograft tumor model in NSG mice; type: in vivo
Text: (A) Proliferation of Caco2 cells assessed by crystal violet staining at the indicated days; bar=1000 μm. […] Staining quantification is reported in the bar graph as percentage of crystal violet stained area. Data represent mean±SEM, n=4. For statistical analyses, a two-way analysis of variance was used, followed by the Bonferroni correction for multiple group comparisons; *=p<0.05, ***=p<0.001. (B) Caco2 cells viability the day of plating (day 0) and three days after plaiting (day 3). The measure is considered a readout of cell proliferation. […] Data represent mean±SEM, n=3 wells. For statistical analyses, a two-way analysis of variance was used, followed by the Bonferroni correction for multiple group comparisons; *=p<0.05, **=p<0.01. (C, D, E) Representative flow cytometric analyses of apoptosis in synchronized Caco2 (C), SKCO1 (D) and C80 (E) cells. […] Data represent mean±SEM, n=4 wells pooled from two independent experiments. […]
For the SKCO1 xenograft model, 8-week-old NOD SCID gamma (NSG) male mice (The Jackson Laboratory, Bar Harbor, ME USA; NOD.Cg-Prkdc^scid Il2rg^tm1Wjl/SzJ, catalog n° 005557, RRID: IMSR_JAX:005557) were housed in a temperature-controlled, pathogen-free environment and used for experimentation. […] Tumor length (L) and width (W) were measured and tumor volume (mm^3) was calculated using the following formula: (L×W^2)/2. […]

## FLVCR1a shRNA: shRNA specifically down-regulating FLVCR1a without targeting FLVCR1b; pLKO.1 lentiviral clone TRCN0000059599, antisense SEQ ID No.: 2 (antisense TTGCTAATGATGCTGTACTGG; sense CCAGTACAGCATCATTAGCAA)
[1]
  activity of ETC complexes: enhanced activity of ETC complexes
[2]; subcutaneous injection of FLVCR1a-silenced vs scramble SKCO1 cells in NSG mice, 11 weeks
  tumor size (tumor volume): smaller tumors
[2]; tumors from FLVCR1a-silenced vs control SKCO1 cells in NSG mice
  tumor histology (hematoxylin and eosin): higher amount of stroma (mostly fibrous tissue) and, in general, lower cellularity
